# Values quoted from earlier work, collected in patent US20250041322A1, “HEAT STRESS RELIEVING AGENT” (Hayashibara Co., Ltd., priority 2018, published 2025).
smiles,measurement,value
COc1ccc(C2CC(=O)c3c(O)cc(O[C@@H]4OC(CO)[C@@H](O)C(O)C4O)cc3O2)cc1O (stereo partly drawn) [7-O-β-glucosyl hesperetin],"Water solubility, comparison in words",more water-soluble than hesperidin
